Measurements reported in patent publication US8551988B2, “Benzimidazole derivatives: preparation and pharmaceutical applications” (Mei Pharma, Inc., priority 2003, dated 2013).
Read-outs that look alike come from different tables or passages of the source.

Assays:
[1] = molecular target: HDAC1 enzyme (recombinant GST-HDAC1) (Homo sapiens (Human), UniProt Q13547); assay: In vitro HDAC assay (BIOMOL fluorescent-based HDAC activity assay), HDAC1; assay type: biochemical
Experimental: (§1) The assay has been carried out in 96 well format and the BIOMOL fluorescent-based HDAC activity assay has been applied. […] Flur de lys Developer was added and the reaction was incubated for 10 min. Briefly, deacetylation of the substrate sensitizes it to the developer, which then generates a fluorophore (symbol). The fluorophore is excited with 360 nm light and the emitted light (460 nm) is detected on a fluorometric plate reader (Tecan Ultra Microplate detection system, Tecan Group Ltd.).
(§2) The analytical software, Prism 3.0 has been used to generate IC50 from a series of data.

[2] = molecular target: HDAC8 enzyme (recombinant GST-HDAC8) (Homo sapiens (Human), UniProt Q9BY41); assay: In vitro HDAC assay (BIOMOL fluorescent-based HDAC activity assay), HDAC8; assay type: biochemical
Experimental: as §1, §2

[3] = read-out: HDAC1 Enzyme Activity IC50
[4] = read-out: HDAC8 Enzyme Activity IC50

HDAC8 enzyme (recombinant GST-HDAC8), sequence (Q9BY41 whole entry): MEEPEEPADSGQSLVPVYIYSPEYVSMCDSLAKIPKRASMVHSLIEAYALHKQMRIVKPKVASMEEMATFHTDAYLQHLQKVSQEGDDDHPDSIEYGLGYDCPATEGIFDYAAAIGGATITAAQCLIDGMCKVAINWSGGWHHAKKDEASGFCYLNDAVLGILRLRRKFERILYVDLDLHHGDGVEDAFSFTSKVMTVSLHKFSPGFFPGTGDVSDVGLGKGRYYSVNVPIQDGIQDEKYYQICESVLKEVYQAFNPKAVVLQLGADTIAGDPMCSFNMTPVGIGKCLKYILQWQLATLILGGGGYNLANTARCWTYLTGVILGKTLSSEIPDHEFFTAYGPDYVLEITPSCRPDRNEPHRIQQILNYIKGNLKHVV
HDAC1 enzyme (recombinant GST-HDAC1), sequence (Q13547 whole entry): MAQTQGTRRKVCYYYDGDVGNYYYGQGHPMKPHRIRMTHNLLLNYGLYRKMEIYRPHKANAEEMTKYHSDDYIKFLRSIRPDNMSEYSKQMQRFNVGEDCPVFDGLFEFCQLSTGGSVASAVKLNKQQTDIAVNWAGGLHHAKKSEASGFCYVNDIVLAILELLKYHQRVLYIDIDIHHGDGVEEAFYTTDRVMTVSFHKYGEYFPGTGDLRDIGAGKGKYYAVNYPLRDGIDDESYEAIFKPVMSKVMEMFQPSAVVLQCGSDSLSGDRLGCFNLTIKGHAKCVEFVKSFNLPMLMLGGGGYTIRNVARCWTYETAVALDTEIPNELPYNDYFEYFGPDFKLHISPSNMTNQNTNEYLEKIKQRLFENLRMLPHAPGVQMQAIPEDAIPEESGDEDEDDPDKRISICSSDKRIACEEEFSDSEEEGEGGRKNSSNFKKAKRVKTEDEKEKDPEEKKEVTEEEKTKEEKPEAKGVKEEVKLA

| IC50 [1, 3] | IC50 [2, 4] | IC50 ([1]; Free base, read-out: IC50 (HDAC1)) | IC50 ([2]; Free base, read-out: IC50 (HDAC8)) | Compound |
| --- | --- | --- | --- | --- |
| 0.371 µM | 0.412 µM |  |  | O=C(/C=C/c1ccc2c(c1)ncn2Cc1ccccc1)NO [Compound 35, N-Hydroxy-3-(1-Benzyl-1H-benzimidazol-5-yl}-acrylamide] |
| 0.479 µM | 0.237 µM |  |  | O=C(/C=C/c1ccc2c(c1)ncn2CCc1ccccn1)NO [Compound 42, N-Hydroxy-3-[1-(2-pyridin-2-yl-ethyl)-1H-benzimidazol-5-yl]-acrylamide] |
| 0.947 µM | 0.192 µM |  |  | CCn1c(C)nc2cc(/C=C/C(=O)NO)ccc21 [Compound 43, N-Hydroxy-3-(1-Ethyl-2-methyl-1H-benzimidazol-5-yl]-acrylamide] |
| 0.072 µM | 0.255 µM |  |  | CCN(CC)CCn1c(CCc2ccccc2)nc2cc(/C=C/C(=O)NO)ccc21 [Compound 66, N-Hydroxy-3-[1-(2-diethylamino-ethyl)-2-phenethyl-1H-benzimidazol-5-yl]-acrylamide] |
|  |  | 0.037 µM | 0.254 µM | O=C(/C=C/c1ccc2c(c1)nc(CCc1ccccc1)n2CCN1CCCCC1)NO [Compound 67, N-Hydroxy-3-[2-phenethyl-1-(piperidin-1-yl-ethyl)-1H-benzimidazol-5-yl]-acrylamide] |

Further lines, the compound ahead of its results:

| Compound | IC50 [1, 3] | IC50 [2, 4] | IC50 ([1]; Free base, read-out: IC50 (HDAC1)) | IC50 ([2]; Free base, read-out: IC50 (HDAC8)) |
| --- | --- | --- | --- | --- |
| O=C(/C=C/c1ccc2c(c1)nc(-c1ccsc1)n2CCCO)NO [Compound 20, N-Hydroxy-3-[1-(3-hydroxy-propyl)-2-thiophen-3-yl-1H-benzimidazol-5-yl]-acrylamide] | 1.91 µM | 0.537 µM |  |  |
| CC(C)Cc1nc2cc(/C=C/C(=O)NO)ccc2n1CCCO [Compound 21, N-Hydroxy-3-[1-(3-hydroxy-propyl)-2-isobutyl-1H-benzimidazol-5-yl]-acrylamide] | 0.064 µM | 0.238 µM |  |  |
| CCCCCCCCc1nc2cc(/C=C/C(=O)NO)ccc2n1CCCO [Compound 23, N-Hydroxy-3-[1-(3-hydroxy-propyl)-2-octyl-1H-benzimidazol-5-yl]-acrylamide] | 0.529 µM | 0.402 µM |  |  |
| CC(C)Cc1nc2cc(/C=C/C(=O)NO)ccc2n1CCc1ccccc1 [Compound 25, N-Hydroxy-3-(2-isobutyl-1-phenethyl-1H-benzimidazol-5-yl]-acrylamide] | 1.32 µM | 0.601 µM |  |  |
| O=C(/C=C/c1ccc2c(c1)nc(CCc1ccccc1)n2CCc1cccnc1)NO [Compound 27, N-Hydroxy-3-(2-phenethyl-1-(2-pyridin-3-yl-ethyl)-1H-benzimidazol-5-yl]-acrylamide] | 0.092 µM | 0.329 µM |  |  |
| O=C(/C=C/c1ccc2c(c1)nc(CCc1ccccc1)n2CCCN1CCCC1=O)NO [Compound 30, N-Hydroxy-3-{1-[3-(2-oxo-pyrrolidin-1-yl)-propyl]-2-phenethyl-1H-benzimidazol-5-yl}-acrylamide] | 0.195 µM | 0.724 µM |  |  |
| O=C(/C=C/c1ccc2c(c1)nc(CCc1ccccc1)n2CCCN1CCOCC1)NO [Compound 31, N-Hydroxy-3-[1-(3-morpholin-4-propyl]-2-phenethyl-1H-benzimidazol-5-yl}-acrylamide] | 0.246 µM | 1.09 µM |  |  |
| O=C(/C=C/c1ccc2c(c1)nc(CCc1ccccc1)n2Cc1ccccc1)NO [Compound 33, N-Hydroxy-3-(1-Benzyl-2-phenethyl-1H-benzimidazol-5-yl}-acrylamide] | 0.449 µM | 1.45 µM |  |  |
| CC(C)Cc1nc2cc(/C=C/C(=O)NO)ccc2n1Cc1ccccc1 [Compound 34, N-Hydroxy-3-(1-Benzyl-2-isobutyl-1H-benzimidazol-5-yl}-acrylamide] | 1.46 µM | 0.846 µM |  |  |
